Literature values as cited in patent US10029078B2, “Pancreas perfusion apparatus, method for controlling same, and method for pancreas perfusion” (KOSEI ADVANCE CO., LTD., priority 2013, dated 2018).

System: unresectable pancreatic cancer
Settings: patients with unresectable pancreatic cancer, systemic chemotherapy

**Q.** What does the source list for `Nc1ccn([C@@H]2O[C@H](CO)[C@@H](O)C2(F)F)c(=O)n1` [gemcitabine]?
**A.** median survival time: approximately 6 months; response rate: approximately 10%
